Results: ChEMBL document CHEMBL1143903, “Synthesis of novel spiropyrrolizidines as potent antimicrobial agents for human and plant pathogens” (2008)
≈ marks a conversion by molar mass, not a printed value.

Experiments:
Proteus mirabilis = experiment: Antibacterial activity against Proteus mirabilis by well diffusion method; format: functional
Staphylococcus aureus = experiment: Antibacterial activity against Staphylococcus aureus by well diffusion method; format: functional
Proteus vulgaris = experiment: Antibacterial activity against Proteus vulgaris by well diffusion method; format: functional
Salmonella typhi = experiment: Antibacterial activity against Salmonella typhi by well diffusion method; format: functional, Salmonella enterica subsp. enterica serovar Typhi; settings: Salmonella enterica
Macrophomina phaseolina = experiment: Antifungal activity against Macrophomina phaseolina by poison food technique; format: functional
Fusarium oxysporum = experiment: Antifungal activity against Fusarium oxysporum by poison food technique; format: functional

Compound | MIC (Proteus mirabilis) [mg/L] | MIC (Staphylococcus aureus) [mg/L] | MIC (Proteus vulgaris) [mg/L] | MIC (Salmonella typhi) [mg/L] | MIC (Macrophomina phaseolina) [mg/L] | MIC (Fusarium oxysporum) [mg/L]
CN(C)[C@@H]1C(O)=C(C(N)=O)C(=O)[C@@]2(O)C(O)=C3C(=O)c4c(O)cccc4[C@@](C)(O)[C@H]3C[C@@H]12 [TETRACYCLINE] | 20 (≈ 45 µM) | 10 (≈ 22.5 µM) | 15 (≈ 33.8 µM) | 15 (≈ 33.8 µM) |  | 
O=C1C2Nc3ccccc3C2CC[C@@]12[C@@H](c1ccc(Cl)cc1)C1CCCN1[C@@]21C(=O)Nc2ccccc21 (some centres not stated) | 35 (≈ 68.6 µM) | 20 (≈ 39.2 µM) | 10 (≈ 19.6 µM) | 30 (≈ 58.8 µM) | 75 (≈ 147 µM) | 125 (≈ 245 µM)
O=C1C2Nc3ccccc3C2CC[C@@]12[C@@H](c1ccccc1)C1CCCN1[C@@]21C(=O)Nc2ccccc21 (some centres not stated) | 55 (≈ 116 µM) |  | 30 (≈ 63.1 µM) | 20 (≈ 42.1 µM) | 50 (≈ 105 µM) | 125 (≈ 263 µM)
O=C1C2Nc3ccccc3C2CC[C@@]12[C@@H](c1ccc(Br)cc1)C1CCCN1[C@@]21C(=O)Nc2ccccc21 (some centres not stated) | 30 (≈ 54.1 µM) | 45 (≈ 81.2 µM) | 25 (≈ 45.1 µM) | 30 (≈ 54.1 µM) | 25 (≈ 45.1 µM) | 50 (≈ 90.2 µM)
COC(=O)Nc1nc2ccccc2[nH]1 [CARBENDAZIM] |  |  |  |  | 15 (≈ 78.5 µM) | 18 (≈ 94.1 µM)
COc1ccc([C@H]2C3CCCN3[C@@]3(C(=O)Nc4ccccc43)[C@]23CCC2c4ccccc4NC2C3=O)cc1 (some centres not stated) | 25 (≈ 49.4 µM) | 40 (≈ 79.1 µM) | 15 (≈ 29.7 µM) | 45 (≈ 89 µM) | 25 (≈ 49.4 µM) | 75 (≈ 148 µM)
O=C1C2Nc3ccccc3C2CC[C@@]12[C@@H](c1ccc([N+](=O)[O-])cc1)C1CCCN1[C@@]21C(=O)Nc2ccccc21 (some centres not stated) | 55 (≈ 106 µM) | 25 (≈ 48 µM) | 35 (≈ 67.2 µM) | 40 (≈ 76.8 µM) | 100 (≈ 192 µM) | 75 (≈ 144 µM)
Cc1ccc([C@H]2C3CCCN3[C@@]3(C(=O)Nc4ccccc43)[C@]23CCC2c4ccccc4NC2C3=O)cc1 (some centres not stated) | 65 (≈ 133 µM) | 45 (≈ 91.9 µM) | 40 (≈ 81.7 µM) | 35 (≈ 71.5 µM) | 50 (≈ 102 µM) | 75 (≈ 153 µM)
CN(C)c1ccc([C@H]2C3CCCN3[C@@]3(C(=O)Nc4ccccc43)[C@]23CCC2c4ccccc4NC2C3=O)cc1 (some centres not stated) | 50 (≈ 96.4 µM) | 35 (≈ 67.5 µM) | 45 (≈ 86.8 µM) | 35 (≈ 67.5 µM) | 75 (≈ 145 µM) | 150 (≈ 289 µM)
